Experimental data: patent US10548906B2, “Methods of promoting hepatic regeneration” (Intercept Pharmaceuticals, Inc., priority 2015, dated 2020)

Tested on: FXR
Assay: Bile salt homeostasis/proliferation related transcript levels in liver after PVE (Example 5a)
Assay type: in vivo, rabbit
Experimental: Adult female rabbits received vehicle or the FXR agonist obeticholic acid (OCA; 10 mg/kg, daily oral gavage) for 7 days prior to, and after embolization (day 0) of the cranial liver lobes. Effectiveness of PVE was confirmed by portography, and caudal liver volume (CLV) was analyzed by CT-volumetric analysis at days −7, −1, +3 and +7. Rabbits were sacrificed at day +3 and +7 (n=5-6 per group).

For `CC[C@H]1[C@@H](O)[C@@H]2[C@H](CC[C@]3(C)[C@@H]([C@H](C)CCC(=O)O)CC[C@@H]23)[C@@]2(C)CC[C@@H](O)C[C@@H]12` [Compound 1, 3α,7α-dihydroxy-6α-ethyl-5β-cholanic acid], the “expression of Cdc25b vs controls” value (atrophic liver segments) was “+1.1 fold”, the “expression of Cdc25b vs controls” value (hypertrophic liver segments) was “+1.6 fold” and the “expression of Cyp7a1 vs controls” value (hypertrophied segments, day +3) was −7.1 fold. For the same compound, the “expression of Slc51b vs controls” value (hypertrophied segments, day +3) was “+6.5 fold”.
